Test results as given in US10730902B2, “1,1 ′-sulfanediyl-di-beta-D-galactopyranosides as inhibitors of galectins” (GALECTO BIOTECH AB, priority 2015, dated 2020).
Values after ≈ are worked out from the molar mass of the structure shown.

Assays:
galectins = settings: all galectins; cited from earlier work
galectin-1 = galectin-1 (Homo sapiens (Human), UniProt P09382); assay: Fluorescence anisotropy assay, galectin-1 affinity; format: binding; settings: read-out: Gal-1 Kd
Experimental: The affinity of Example 1-5 for galectins were determined by a fluorescence anisotropy assay where the compound was used as an inhibitor of the interaction between galectin and a fluorescein tagged saccharide probe as described Sörme, P., Kahl-Knutsson, B., Huflejt, M., Nilsson, U. J., and Leffler H. (2004) Fluorescence polarization as an analytical tool to evaluate galectin-ligand interactions. Anal. Biochem. 334: 36-47, (Sörme et al., 2004) and Monovalent interactions of Galectin-1 By Salomonsson, Emma; Larumbe, Amaia; Tejler, Johan; Tullberg, Erik; Rydberg, Hanna; Sundin, Anders; Khabut, Areej; Frejd, Torbjorn; Lobsanov, Yuri D.; Rini, James M.; et al, From Biochemistry (2010), 49(44), 9518-9532, (Salomonsson et al., 2010). […] 100 nM albumin was included as a carrier to prevent protein loss at such low concentration of galectin.

Solubility = format: physicochemical
galectin-3 = galectin-3 (Homo sapiens (Human), UniProt P17931); assay: Fluorescence anisotropy assay, galectin-3 affinity; format: binding; settings: read-out: Gal-3 Kd
Experimental: Anal. Biochem. 334: 36-47, (Sörme et al., 2004) and Monovalent interactions of Galectin-1 By Salomonsson, Emma; Larumbe, Amaia; Tejler, Johan; Tullberg, Erik; Rydberg, Hanna; Sundin, Anders; Khabut, Areej; Frejd, Torbjorn; Lobsanov, Yuri D.; Rini, James M.; et al, From Biochemistry (2010), 49(44), 9518-9532, (Salomonsson et al., 2010). […] 100 nM albumin was included as a carrier to prevent protein loss at such low concentration of galectin.

[1] = system: rabbit model of proliferative Vitreoretinopathy (PVR); assay: Study of ocular fibrosis in rabbits (retinal detachment, PVR model); format: in vivo, New Zealand white rabbits; settings: for reduction of size and number of subretinal glial scars and number of dividing cells: in HEC formulation, rabbit retinal detachment; for number of subretinal scars per mm of retina / scar length per mm of retina: seven days after retinal detachment; for number of subretinal scars per mm of retina / scar length per mm of retina / Ki67 labeled Muller cells per mm of retina: 50 μL IVT in HEC gel, GB1A 0.05 mg/mL, GB1B 1.5 mg/mL; for number of subretinal scars per mm of retina: HEC control 1.26; for scar length per mm of retina: HEC control 175; for Ki67 labeled Muller cells per mm of retina: three days after retinal detachment, HEC control 9.57
Experimental: 30 New Zealand white rabbits were housed in metal cages that conformed to standards set forth in the Animal Welfare Act and the Guide for the Care and Use of Laboratory Animals. Space recommendations for animals were in accordance with PHS policy and the AWA.
The vehicle gel formulation was 1.65% (w/v) HEC in NaCl. The vehicle formulation was prepared by adding the appropriate amount of HEC to 75% of the required volume of 0.9% NaCl. The resulting formulation was stirred for 20 to 25 minutes after which it was QS'ed (adjusted) to the final volume with 0.9% NaCl and stirred for an additional 2 to 3 hours at room temperature. The gel formulation was then filtered with a 0.2 μm cellulose filter.
The test item formulations were prepared by adding the appropriate amount of GB1A or GB1B to 75% of the required volume of 0.9% NaCl. The resulting formulation was agitated for 20 to 25 minutes after which the pH of the solution was measured and adjusted, as necessary, to 6-6.5 with 0.01M NaOH. The required amount of HEC was added to the test item solution and the formulation was agitated for 20 to 25 minutes. The formulation was then QS'ed to the final volume with NaCl and agitated for an additional 2 to 3 hours at room temperature. The final gel formulation was filtered with a 0.2 μm cellulose filter.
Retinal detachments were created by infusing a dilute solution (0.25%) of Healon into the subretinal space of the right eyes in 30 New Zealand White rabbits. Fifty (50) μL of GB1A (0.05 mg/mL), GB1B (1.5 mg/mL), or vehicle (HEC) formulations were injected intravitreally immediately after the detachment surgery in the right eyes of all animals (n=5 for each vehicle/test item at each time-point). The left eyes served as naïve controls. Euthanasia was performed by administering “Euthasol” IV via an ear vein, on animals of Groups 1 to 3, 3 days after retinal detachment (n=15) to examine the effects on proliferation, and on animals of Groups 4 to 6, 7 days after retinal detachment (n=15) to examine the effects on scaring.
Following euthanasia, the retinas were fixed in 4% paraformaldehyde for 24 hours. Three retinal regions approximately 3 mm square were sampled from within each detached retina as well as from control retinas. The retinas were embedded in agarose and vibratomed at 100 microns in thickness. Sections were immunolabeled with antibodies to intermediate filament proteins (vimentin) and proliferating cells (Ki67). A marker for immune cells (Isolectin B4) and a nuclear stain (DAPI) was also used. All 4 probes were added to the same sections (i.e. quadruple labeling).
The sections were imaged using an Olympus FV1000 confocal microscope. Digital images were acquired and used to determine 1) the number and size of subretinal glial scars 2) the number of dividing cells and their cell type e.g. of immune or glial origin 3) whether microglia are “activated” and 4) if macrophages are present. Animals were weighed pre-dose and at euthanasia. All animals gained a small amount of weight as was expected.
Following euthanasia, the eyes were enucleated, the cornea and lens removed and the eyecups fixed in 4% paraformaldehyde in PBS for 24 hours. Three retinal regions approximately 3 mm^2 were dissected from within each detached retina and embedded in agarose for sectioning as described above. Following immunolabeling, the sections were mounted on glass slides and cover-slipped. Digital images were captured from along the length of each section collected from each of the 3 retinal regions using a FV1000 confocal microscope. Quantitation of scar length and number, as well as the number of dividing cells, was performed using the digital images viewed in “BioImage” (software available as a free download from UCSB's dept. of engineering). In addition, the presence of immune cells as described in the Experimental Design was noted and tabulated for each animal.

Chain of galectin-1 (P09382 whole entry): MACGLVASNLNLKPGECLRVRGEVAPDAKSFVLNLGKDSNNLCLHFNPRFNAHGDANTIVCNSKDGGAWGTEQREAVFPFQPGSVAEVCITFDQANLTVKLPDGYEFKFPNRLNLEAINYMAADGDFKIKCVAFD
Chain of galectin-3 (P17931 whole entry): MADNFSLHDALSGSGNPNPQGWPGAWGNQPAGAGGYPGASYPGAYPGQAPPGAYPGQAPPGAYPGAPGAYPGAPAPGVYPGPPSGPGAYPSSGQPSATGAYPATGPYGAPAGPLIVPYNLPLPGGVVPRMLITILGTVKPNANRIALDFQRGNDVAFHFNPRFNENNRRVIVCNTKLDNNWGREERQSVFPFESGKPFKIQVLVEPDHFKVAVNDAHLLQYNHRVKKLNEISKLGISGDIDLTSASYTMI

**Q.** With O=C[C@H](O)[C@@H](O)[C@@H](O)[C@H](O)CO [D-galactose] as the molecule, how does the “affinity relative to lactose” value (galectins) read?
**A.** Its value is 50-100 times lower.

**Q.** Which Kd (galectin-1) does the source give for OCC1O[C@@H](SC2O[C@H](CO)C(O)C(n3cc(N4CCOCC4)nn3)[C@H]2O)C(O)C(n2cc(-c3cc(F)c(F)c(F)c3)nn2)[C@H]1O (stereo partly drawn) [Example 1, 3,3′-Dideoxy-3-[4-(morpholin-4-yl)-1H-1,2,3-triazol-1-yl]-3′-[4-(3,4,5-trifluorophenyl)-1H-1,2,3-triazol-1-yl]-1,1′-sulfanediyl-di-β-D-galactopyranoside] here?
**A.** Its Kd is 0.11 µM.

**Q.** With OCC1O[C@@H](SC2O[C@H](CO)C(O)C(n3cc(N4CCOCC4)nn3)[C@H]2O)C(O)[C@@H](n2cc(-c3cc(F)c(F)c(F)c3)nn2)[C@H]1O (stereo partly drawn) [Example 1, 3,3′-Dideoxy-3-[4-(morpholin-4-yl)-1H-1,2,3-triazol-1-yl]-3′-[4-(3,4,5-trifluorophenyl)-1H-1,2,3-triazol-1-yl]-1,1′-sulfanediyl-di-β-D-galactopyranoside] as the molecule, how does the solubility (Solubility) read?
**A.** Its solubility is greater than 10000 µg/mL.

**Q.** For CN1CCN(c2cn(C3C(O)[C@@H](CO)OC(S[C@@H]4OC(CO)[C@H](O)C(n5cc(-c6cc(F)c(F)c(F)c6)nn5)C4O)[C@@H]3O)nn2)CC1 (stereo partly drawn) [Example 2, 3,3′-Dideoxy-3-[4-(4-methylpiperazin-1-yl)-1H-1,2,3-triazol-1-yl]-3′-[4-(3,4,5-trifluorophenyl)-1H-1,2,3-triazol-1-yl]-1,1′-sulfanediyl-di-β-D-galactopyranoside], which Kd (galectin-1) is on record?
**A.** Its Kd is 0.035 µM.

**Q.** With CN1CCN(c2cn(C3C(O)[C@@H](CO)OC(S[C@@H]4OC(CO)[C@H](O)[C@H](n5cc(-c6cc(F)c(F)c(F)c6)nn5)C4O)[C@@H]3O)nn2)CC1 (stereo partly drawn) [Example 2, 3,3′-Dideoxy-3-[4-(4-methylpiperazin-1-yl)-1H-1,2,3-triazol-1-yl]-3′-[4-(3,4,5-trifluorophenyl)-1H-1,2,3-triazol-1-yl]-1,1′-sulfanediyl-di-β-D-galactopyranoside] as the molecule, how does the solubility (Solubility) read?
**A.** Its solubility is greater than 10000 µg/mL.

**Q.** Which results are given for OCC1O[C@@H](SC2O[C@H](CO)C(O)C(n3cc(C4CCNCC4)nn3)[C@H]2O)C(O)[C@@H](n2cc(-c3cc(F)c(F)c(F)c3)nn2)[C@H]1O (stereo partly drawn) [Example 3, 3,3′-Dideoxy-3-[4-(piperidin-4-yl)-1H-1,2,3-triazol-1-yl]-3′-[4-(3,4,5-trifluorophenyl)-1H-1,2,3-triazol-1-yl]-1,1′-sulfanediyl-di-β-D-galactopyranoside]?
**A.** solubility (Solubility): > 10000 µg/mL; Kd (galectin-1): 0.029 µM; Kd (galectin-3): 0.005 µM

**Q.** With OCC1O[C@@H](SC2O[C@H](CO)C(O)C(n3cc(C4CCOCC4)nn3)[C@H]2O)C(O)C(n2cc(-c3cc(F)c(F)c(F)c3)nn2)[C@H]1O (stereo partly drawn) [Example 4, 3,3′-Dideoxy-3-[4-(tetrahydropyran-4-yl)-1H-1,2,3-triazol-1-yl]-3′-[4-(3,4,5-trifluorophenyl)-1H-1,2,3-triazol-1-yl]-1,1′-sulfanediyl-di-β-D-galactopyranoside] as the molecule, how does the Kd (galectin-1) read?
**A.** The Kd was 0.058 µM.

**Q.** For OCC1O[C@@H](SC2O[C@H](CO)C(O)C(n3cc(C4CCOCC4)nn3)[C@H]2O)C(O)[C@@H](n2cc(-c3cc(F)c(F)c(F)c3)nn2)[C@H]1O (stereo partly drawn) [Example 4, 3,3′-Dideoxy-3-[4-(tetrahydropyran-4-yl)-1H-1,2,3-triazol-1-yl]-3′-[4-(3,4,5-trifluorophenyl)-1H-1,2,3-triazol-1-yl]-1,1′-sulfanediyl-di-β-D-galactopyranoside], which solubility (Solubility) is on record?
**A.** The solubility was 8100 µg/mL (≈ 12 mM).

**Q.** Which Kd (galectin-1) does the source give for CC(C)c1cn(C2C(O)[C@@H](CO)OC(S[C@@H]3OC(CO)[C@H](O)C(n4cc(-c5cc(F)c(F)c(F)c5)nn4)C3O)[C@@H]2O)nn1 (stereo partly drawn) [Example 5, 3,3′-Dideoxy-3-[4-(propan-2-yl)-1H-1,2,3-triazol-1-yl]-3′-[4-(3,4,5-trifluorophenyl)-1H-1,2,3-triazol-1-yl]-1,1′-sulfanediyl-di-β-D-galactopyranoside] here?
**A.** Its Kd is 0.07 µM.

**Q.** With CC(C)c1cn(C2C(O)[C@@H](CO)OC(S[C@@H]3OC(CO)[C@H](O)[C@H](n4cc(-c5cc(F)c(F)c(F)c5)nn4)C3O)[C@@H]2O)nn1 (stereo partly drawn) [Example 5, 3,3′-Dideoxy-3-[4-(propan-2-yl)-1H-1,2,3-triazol-1-yl]-3′-[4-(3,4,5-trifluorophenyl)-1H-1,2,3-triazol-1-yl]-1,1′-sulfanediyl-di-β-D-galactopyranoside] as the molecule, how does the solubility (Solubility) read?
**A.** Its solubility is greater than 10000 µg/mL.

**Q.** Which “reduction of size and number of subretinal glial scars and number of dividing cells” value [1] does the source give for OC[C@H]1O[C@@H](S[C@@H]2O[C@H](CO)[C@H](O)[C@H](n3cc(-c4cccc(F)c4)nn3)[C@H]2O)[C@H](O)[C@@H](n2cc(-c3cccc(F)c3)nn2)[C@H]1O [GB1A, 3,3′-Dideoxy-3,3′-bis-[4-(3-fluoro-phenyl)-1H-1,2,3-triazol-1-yl]-1,1′-sulfanediyl-di-β-D-galactopyranoside] here?
**A.** The value was “highly effective”.

**Q.** What about the “number of subretinal scars per mm of retina” value [1] of the same molecule?
**A.** Its value is 0.45 scars per mm of retina.

**Q.** And the “scar length per mm of retina” value [1]?
**A.** The value was 25.83 microns per mm of retina.

**Q.** What about the “Ki67 labeled Muller cells per mm of retina” value [1] of the same molecule?
**A.** The value was 3.01 cells per mm of retina.

**Q.** With OC[C@H]1O[C@@H](S[C@@H]2O[C@H](CO)[C@H](O)[C@H](n3cc(-c4ccc(F)cn4)nn3)[C@H]2O)[C@H](O)[C@@H](n2cc(-c3ccc(F)cn3)nn2)[C@H]1O [GB1B, 3,3′-Dideoxy-3,3′-bis-[4-(5-fluoro-2-pyridinyl)-1H-1,2,3-triazol-1-yl]-1,1′-sulfanediyl-di-β-D-galactopyranoside] as the molecule, how does the “reduction of size and number of subretinal glial scars and number of dividing cells” value [1] read?
**A.** The value was “highly effective”.

**Q.** What about the “number of subretinal scars per mm of retina” value [1] of the same molecule?
**A.** Its value is 0.43 scars per mm of retina.

**Q.** And the “scar length per mm of retina” value [1]?
**A.** Its value is 28.8 microns per mm of retina.

**Q.** What about the “Ki67 labeled Muller cells per mm of retina” value [1] of the same molecule?
**A.** Its value is 2.73 cells per mm of retina.

**Q.** For OC[C@H]1O[C@@H](O[C@H]2[C@H](O)[C@@H](O)C(O)O[C@@H]2CO)[C@H](O)[C@@H](O)[C@H]1O (stereo partly drawn) [lactose], which Kd (galectins) is on record?
**A.** The Kd was 500 to 1000 µM.
